The values that follow come from patent US9512139B2, “Conformationally constrained, fully synthetic macrocyclic compounds” (POLYPHOR AG, priority 2009, dated 2016).

The structures appear in SMILES notation.

The target of the assay is T1, Prostaglandin F (FP) Receptor (Homo sapiens, UniProt P43088).
T1 construct: host or cells: Ca2+ optimized hematopoietic cell lines (rat)
As to the kind of experiment: Ca2+ assay (FLIPR) for the GPCR prostaglandin F (FP) receptor, agonist and antagonist mode. The format is cell-based. The protocol:
Biological and Pharmacological Methods 1. Ca^2+ Assays for the GPCRs Motilin Receptor, Prostaglandin F (FP) Receptor, 5-hydroxytryptamine 2B (5-HT2B) Receptor, and Purinoreceptor P2Y1
Assays were performed using on a FLIPR^TETRA fluorometric imaging plate reader (Molecular Devices) with ScreenWorks Version 2 (Molecular Devices) as device operating and data analysis software.
Dose dependent agonist and antagonist activities were determined. Percentage activation and percentage inhibition values were determined.
Percentage activation was determined upon initial addition of the sample compounds followed by 10 minutes incubation at 25° C. Following compound incubation, reference agonists were added at EC80 to determine percentage inhibition.
Reference agonists were purchased from reputable commercial vendors and prepared according to each ligand's specifications. All handling of ligands were done to ensure proper control throughout the experiments.
Example compounds were weighed on a Microbalance (Mettler MX5) and dissolved in 100% DMSO to a final concentration of 2.5 mM and subsequently diluted into the assay buffer.
The Assay buffer was a supplemented HBSS (Hank's Balanced Salt Solution). HBSS was supplemented with 20 mM HEPES (4-(2-hydroxyethyl)-piperazin-1-ethansulfonic acid) and 2.5 mM Probenecid (Sigma P8761).
GPCR assays were performed using Ca^2+ optimized hematopoietic cell lines (rat) with cultures never exceeding 90% confluency. Cells were harvested and seeded (from cultures at less than 90% confluency) at 50000 cells/well for a 96-well plate (12500 cells/well for 384). After seeding, the assay plates were incubated for forty-five (45) minutes at room temperature. After room temperature incubation, the assay plates were incubated at 37° C. 5% CO2 for 24 hours prior to assaying.
All GPCR assays were performed using Fluo-8 Ca^2+ dye. Ca^2+ dye was prepared at 1× dye concentration in GPCR assay buffer. After 24 hours of incubation, cells were washed with GPCR assay buffer, and then Ca^2+-dye (100 μL/well) was added.
The plates were incubated for 90 minutes at 30° C. 5% CO2 prior to FLIPR assay.
Compound plates were prepared to add 50 μL/well during the agonist assay mode. During the FLIPR assay, 50 μL/well from the compound plate was diluted 3-fold into the existing 100 μL/well from the dye loading step. Therefore all compounds were prepared as 3× the final concentration desired in the assay.
After completion of the first single addition assay run, assay plate was removed from the FLIPR Tetra and placed at 25° C. for seven (7) minutes before antagonist assay.
Using the EC80 values determined during the agonist assay, all pre-incubated sample compound and reference antagonist (if applicable) wells were stimulated at the EC80 of the reference agonist. As reference ligands for the first three assays their obvious natural ligands motilin, prostaglandin F2α, and serotonin (5-HT, 5-Hydroxytryptamine) were used; and for the P2Y1 assay 2MeSATP (2-methyl-thio-adeno-sine 5′-triphosphate, i.e. (2R,3S,4R)-5-(6-amino-2-methylsulfanyl-purin-9-yl)-3,4-dihydroxy-tetrahydrofuran-2-yl]methyl (hydroxy-phosphonooxy-phosphoryl)hydrogen phosphate) was applied.
After the addition of the reference agonist fluorescence was monitored for 180 sec using FLIPR Tetra.
Data Analysis and Results:
From the FLIPR data, with negative control correction enabled, the maximum statistic for each well was exported and percentage activation relative to Emax control was calculated.

T1 sequence (P43088 whole entry): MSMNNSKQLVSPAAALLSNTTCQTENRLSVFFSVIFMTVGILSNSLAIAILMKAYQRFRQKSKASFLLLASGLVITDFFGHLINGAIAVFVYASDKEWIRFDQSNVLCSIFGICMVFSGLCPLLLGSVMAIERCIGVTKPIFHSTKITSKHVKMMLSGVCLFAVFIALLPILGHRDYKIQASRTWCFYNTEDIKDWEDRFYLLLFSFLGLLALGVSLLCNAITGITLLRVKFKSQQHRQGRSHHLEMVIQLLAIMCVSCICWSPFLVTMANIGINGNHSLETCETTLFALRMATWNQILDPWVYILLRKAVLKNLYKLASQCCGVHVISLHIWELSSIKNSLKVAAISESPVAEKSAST

The IC50 is the concentration at which inhibition is half-maximal. As a reminder, the inhibition is the relative decrease from the control value, in per cent. Read a high inhibition as a response far below the control. Consider `CCCCCCCCCC(=O)N[C@H]1CCCN(C)C(=O)c2cccc(c2)OC[C@@H]2C[C@H](NC(=O)c3cccc(N4CCOCC4)c3)CN2C1=O` [Ex. 510, N-[(4S,6S,10S)-14-methyl-6-[(3-morpholinobenzoyl)amino]-9,15-dioxo-2-oxa-8,14-diazatricyclo[14.3.1.0^4,8]icosa-1(20),16,18-trien-10-yl]decanamide], for which the IC50 was 1500 nM and the inhibition at 10 µM is 42%.

Consider `CN1CCC[C@H](NC(=O)Cc2ccc(-c3ccccc3)cc2)C(=O)N2C[C@@H](NC(=O)Cc3ccc(-c4ccccc4)cc3)C[C@H]2COc2cccc(c2)C1=O` [Ex. 551, 2-[1,1′-biphenyl]-4-yl-N-[(4S,6S,10S)-10-[(2-[1,1′-biphenyl]-4-ylacetyl)amino]-14-methyl-9,15-dioxo-2-oxa-8,14-diazatricyclo[14.3.1.0^4,8]icosa-1(20),16,18-trien-6-yl]acetamide], for which at 10 µM the inhibition was 72%.

`Cc1cccc(NC(=O)N[C@H]2CCCN(C)C(=O)c3cccc(c3)OC[C@@H]3C[C@H](NC(=O)Cc4ccc5ccccc5c4)CN3C2=O)c1` [Ex. 506, N-[(4S,6S,10S)-14-methyl-9,15-dioxo-10-[(3-toluidinocarbonyl)amino]-2-oxa-8,14-diazatricyclo[14.3.1.0^4,8]icosa-1(20),16,18-trien-6-yl]-2-(2-naphthyl)acetamide] came in with an IC50 of 2200 nM and an inhibition at 10 µM of 55%. For the molecule `CCCCCCCCCC(=O)N[C@H]1CCCN(C)C(=O)c2cccc(c2)OC[C@@H]2C[C@H](NC(=O)CC(c3ccccc3)c3ccccc3)CN2C1=O` [Ex. 550, N-[(4S,6S,10S)-6-[(3,3-diphenylpropanoyl)amino]-14-methyl-9,15-dioxo-2-oxa-8,14-diazatricyclo[14.3.1.0^4,8]icosa-1(20),16,18-trien-10-yl]decanamide], the inhibition at 10 µM is 73%. For `CN(C)c1cccc(NC(=O)N[C@H]2C[C@H]3COc4cccc(c4)C(=O)NCCC[C@H](NC(=O)Cc4ccc5ccccc5c4)C(=O)N3C2)c1` [Ex. 386, N-[(4S,6S,10S)-6-({[3-(dimethylamino)anilino]carbonyl}amino)-9,15-dioxo-2-oxa-8,14-diazatricyclo[14.3.1.0^4,8]icosa-1(20),16,18-trien-10-yl]-2-(2-naphthyl)acetamide], the half-inhibitory concentration (IC50) was determined as 2700 nM and the inhibition at 10 µM is 85%. In the same order, the values of `O=C(Cc1ccc2ccccc2c1)N[C@H]1C[C@H]2COc3cccc(c3)C(=O)NCCC[C@H](NC(=O)OCc3ccccc3)C(=O)N2C1` [Ex. 388, benzyl N-[(4S,6S,10S)-6-{[2-(2-naphthyl)acetyl]amino}-9,15-dioxo-2-oxa-8,14-diazatricyclo[14.3.1.0^4,8]icosa-1(20),16,18-trien-10-yl]carbamate] are 320 nM and 99%. As to `CN1CCC[C@H](NC(=O)Cc2ccc3ccccc3c2)C(=O)N2C[C@@H](NC(=O)Cc3cccc(Oc4ccccc4)c3)C[C@H]2COc2cccc(c2)C1=O` [Ex. 541, N-[(4S,6S,10S)-14-methyl-9,15-dioxo-6-{[2-(3-phenoxyphenyl)acetyl]amino}-2-oxa-8,14-diazatricyclo[14.3.1.0^4,8]icosa-1(20),16,18-trien-10-yl]-2-(2-naphthyl)acetamide], the inhibition at 10 µM stood at 65%.

Molecule `CN1CCC[C@H](NC(=O)Cc2ccc3ccccc3c2)C(=O)N2C[C@@H](NC(=O)Nc3cccc(N(C)C)c3)C[C@H]2COc2cccc(c2)C1=O` [Ex. 508, N-[(4S,6S,10S)-6-({[3-(dimethylamino)anilino]carbonyl}amino)-14-methyl-9,15-dioxo-2-oxa-8,14-diazatricyclo[14.3.1.0^4,8]icosa-1(20),16,18-trien-10-yl]-2-(2-naphthyl)acetamide] showed an IC50 of 430 nM and an inhibition at 10 µM of 93%. In the same order, the values of `CCCCCC/C=C/CC(=O)N[C@H]1CCCN(C)C(=O)c2cccc(c2)OC[C@@H]2C[C@H](NC(=O)Cc3ccc4ccccc4c3)CN2C1=O` [Ex. 518, (E)-N-[(4S,6S,10S)-14-methyl-6-{[2-(2-naphthyl)acetyl]amino}-9,15-dioxo-2-oxa-8,14-diazatricyclo[14.3.1.0^4,8]icosa-1(20),16,18-trien-10-yl]-3-decenamide] are 490 nM and 80%.

With `CCCCCCCCCC(=O)N[C@H]1CCCNC(=O)c2cccc(c2)OC[C@@H]2C[C@H](NC(=O)Cc3ccc4ccccc4c3)CN2C1=O` [Ex. 391, N-[(4S,6S,10S)-6-{[2-(2-naphthyl)acetyl]amino}-9,15-dioxo-2-oxa-8,14-diazatricyclo[14.3.1.0^4,8]icosa-1(20),16,18-trien-10-yl]decanamide], the IC50 amounted to 250 nM and the inhibition at 10 µM stood at 93%.

`CCCCCCCCCC(=O)N[C@H]1CCCN(C)C(=O)c2cccc(c2)OC[C@@H]2C[C@H](NC(=O)Cc3ccc4ccccc4c3)CN2C1=O` [Ex. 504, N-[(4S,6S,10S)-14-methyl-6-{[2-(2-naphthyl)acetyl]amino}-9,15-dioxo-2-oxa-8,14-diazatricyclo[14.3.1.0^4,8]icosa-1(20),16,18-trien-10-yl]decanamide] returned an IC50 of 441 nM and an inhibition at 10 µM of 62%.

In turn, `COc1cccc(NC(=O)N[C@H]2C[C@H]3COc4cccc(c4)C(=O)N(C)CCC[C@H](NC(=O)Cc4ccc5ccccc5c4)C(=O)N3C2)c1` [Ex. 513, N-[(4S,6S,10S)-6-{[(3-methoxyanilino)carbonyl]amino}-14-methyl-9,15-dioxo-2-oxa-8,14-diazatricyclo[14.3.1.0^4,8]icosa-1(20),16,18-trien-10-yl]-2-(2-naphthyl)acetamide] returned an IC50 of 650 nM and an inhibition at 10 µM of 95%. Turning to `CN1CCC[C@H](NC(=O)C(c2ccccc2)c2ccccc2)C(=O)N2C[C@@H](NC(=O)Cc3ccc(-c4ccccc4)cc3)C[C@H]2COc2cccc(c2)C1=O` [Ex. 547, N-[(4S,6S,10S)-6-[(2-[1,1′-biphenyl]-4-ylacetyl)amino]-14-methyl-9,15-dioxo-2-oxa-8,14-diazatricyclo[14.3.1.0^4,8]icosa-1(20),16,18-trien-10-yl]-2,2-diphenylacetamide], 10 µM produced 47% inhibition. The same measure, in the same setting: for `CCCCCCCCCC(=O)N[C@H]1C[C@H]2COc3cccc(c3)C(=O)N(C)CCC[C@H](NC(=O)Cc3ccc4ccccc4c3)C(=O)N2C1` [Ex. 542, N-[(4S,6S,10S)-14-methyl-10-{[2-(2-naphthyl)acetyl]amino}-9,15-dioxo-2-oxa-8,14-diazatricyclo[14.3.1.0^4,8]icosa-1(20),16,18-trien-6-yl]decanamide] the value was 74%; for `CN1CCC[C@H](NC(=O)Cc2cccc3ccccc23)C(=O)N2C[C@@H](NC(=O)Cc3ccc(-c4ccccc4)cc3)C[C@H]2COc2cccc(c2)C1=O` [Ex. 545, 2-[1,1′-biphenyl]-4-yl-N-[(4S,6S,10S)-14-methyl-10-{[2-(1-naphthyl)acetyl]amino}-9,15-dioxo-2-oxa-8,14-diazatricyclo[14.3.1.0^4,8]icosa-1(20),16,18-trien-6-yl]acetamide], 80%. On to `CN1CCC[C@H](NC(=O)CCCCCc2ccccc2)C(=O)N2C[C@@H](NC(=O)CCCCCOCc3ccccc3)C[C@H]2COc2cccc(c2)C1=O` [Ex. 524, 6-(benzyloxy)-N-[(4S,6S,10S)-14-methyl-9,15-dioxo-10-[(6-phenylhexanoyl)amino]-2-oxa-8,14-diazatricyclo[14.3.1.0^4,8]icosa-1(20),16,18-trien-6-yl]hexanamide], for which the IC50 amounted to 1700 nM and testing at 10 µM gave an inhibition of 85%.
